Test results from patent US20050142581A1, “Microrna as ligands and target molecules” (priority 2003, published 2005).
Oligonucleotides are written 5' to 3', each unit as a sugar letter and its base; * is a phosphorothioate linkage, no mark a phosphodiester; rarer units and linkages stand in square brackets, end groups in braces. Plain capitals give the bases only. d = 2'-deoxy (DNA)

Tested on: human CD40 mRNA
Assay: Inhibition of CD40 mRNA levels by oligonucleotides (real-time RT-PCR)
Type: cell-based
Set-up: concentration or dose not given beside the values
Details: oligodeoxynucleotides with phosphorothioate backbones throughout; averages from three experiments
Experimental: When cells reach about 80% confluency, they are treated with oligonucleotide. For cells grown in 96-well plates, wells are washed once with 200 μl Opti-MEM-1 reduced-serum medium (Life Technologies) and then treated with 130 μl of Opti-MEM-1 containing 3.75 μg/ml LIPOFECTIN (Life Technologies) and the desired oligonucleotide at a final concentration of 150 nM. After 4 hours of treatment, the medium was replaced with fresh medium. Cells were harvested 16 hours after oligonucleotide treatment.
Poly(A)+ mRNA was isolated according to Miura et al. (Clin. Chem., 1996, 42, 1758). Briefly, for cells grown on 96-well plates, growth medium was removed from the cells and each well was washed with 200 ul cold PBS. 60 ul lysis buffer (10 mM Tris-HCl, pH 7.6, 1 mM EDTA, 0.5 M NaCl, 0.5% NP-40, 20 mM vanadyl-ribonucleoside complex) was added to each well, the plate was gently agitated and then incubated at room temperature for five minutes. 55 ul of lysate was transferred to Oligo d(T) coated 96 well plates (AGCT Inc., Irvine, Calif.). Plates were incubated for 60 minutes at room temperature, washed 3 times with 200 ul of wash buffer (10 mM Tris-HCl pH 7.6, 1 mM EDTA, 0.3 M NaCl). After the final wash, the plate was blotted on paper towels to remove excess wash buffer and then air-dried for 5 minutes. 60 ul of elution buffer (5 mM Tris-HCl pH 7.6), preheated to 70° C. was added to each well, the plate was incubated on a 90° hot plate for 5 minutes, and the eluate then transferred to a fresh 96 well plate. Cells grown on 100 mm or other standard plates may be treated similarly, using appropriate volumes of all solutions.
Quantitation of CD40 mRNA levels was determined by real-time PCR (RT-PCR) using the ABI PRISM 7700 Sequence Detection System (PE-Applied Biosystems, Foster City, Calif.) according to manufacturer's instructions. This is a closed-tube, non-gel-based, fluorescence detection system which allows high-throughput quantitation of polymerase chain reaction (PCR) products in real-time.
As opposed to standard PCR, in which amplification products are quantitated after the PCR is completed, products in RT-PCR are quantitated as they accumulate. This is accomplished by including in the PCR reaction an oligonucleotide probe that anneals specifically between the forward and reverse PCR primers, and contains two fluorescent dyes. A reporter dye (e.g., JOE or FAM, PE-Applied Biosystems, Foster City, Calif.) is attached to the 5′ end of the probe and a quencher dye (e.g., TAMRA, PE-Applied Biosystems, Foster City, Calif.) is attached to the 3′ end of the probe. When the probe and dyes are intact, reporter dye emission is quenched by the proximity of the 3′ quencher dye. During amplification, annealing of the probe to the target sequence creates a substrate that can be cleaved by the 5′-exonuclease activity of Taq polymerase.
With each cycle, additional reporter dye molecules are cleaved from their respective probes, and the fluorescence intensity is monitored at regular (six-second) intervals by laser optics built into the ABI PRISM 7700 Sequence Detection System. In each assay, a series of parallel reactions containing serial dilutions of mRNA from untreated control samples generates a standard curve that is used to quantitate the percent inhibition after antisense oligonucleotide treatment of test samples.
RT-PCR reagents were obtained from PE-Applied Biosystems, Foster City, Calif. RT-PCR reactions were carried out by adding 25 ul PCR cocktail (1× Taqman buffer A, 5.5 mM MgCl2, 300 uM each of dATP, dCTP and dGTP, 600 uM of dUTP, 100 nM each of forward primer, reverse primer, and probe, 20 U RNAse inhibitor, 1.25 units AmpliTaq Gold, and 12.5 U MuLV reverse transcriptase) to 96 well plates containing 25 ul poly(A) mRNA solution. […]

Point of comparison: “18676 (DNA dG*dT*dC*dC*dA*dA*dG*dG*dG*dT*dG*dA*dC*dA*dT*dT*dT*dT; antisense) [compound 18676]”, “% INHIB. (Inhibition of CD40 mRNA Levels by Phosphorothioate Oligodeoxynucleotides)” value 8.01%. Against it:
- 18661 (DNA dG*dG*dA*dC*dA*dC*dA*dG*dC*dT*dC*dT*dC*dA*dC*dA*dG*dG; antisense) [compound 18661] — lower, 0.00%
- 18662 (DNA dT*dG*dC*dA*dG*dG*dA*dC*dA*dC*dA*dG*dC*dT*dC*dT*dC*dA; antisense) [compound 18662] — lower, 0.00%
- 18663 (DNA dG*dA*dG*dC*dG*dG*dT*dG*dC*dA*dG*dG*dA*dC*dA*dC*dA*dG; antisense) [compound 18663] — lower, 0.00%
- 18664 (DNA dA*dA*dG*dC*dC*dG*dG*dG*dC*dG*dA*dG*dC*dA*dT*dG*dA*dG; antisense) [compound 18664] — lower, 0.00%
- 18665 (DNA dA*dA*dT*dC*dT*dG*dC*dT*dT*dG*dA*dC*dC*dC*dC*dA*dA*dA; antisense) [compound 18665] — lower, 5.59%
- 18666 (DNA dG*dA*dA*dA*dC*dC*dC*dC*dT*dG*dT*dA*dG*dC*dA*dA*dT*dC; antisense) [compound 18666] — lower, 0.10%
- 18667 (DNA dG*dT*dA*dT*dC*dA*dG*dA*dA*dA*dC*dC*dC*dC*dT*dG*dT*dA; antisense) [compound 18667] — lower, 0.00%
- 18668 (DNA dG*dC*dT*dC*dG*dC*dA*dG*dA*dT*dG*dG*dT*dA*dT*dC*dA*dG; antisense) [compound 18668] — lower, 0.00%
- 18669 (DNA dG*dC*dA*dG*dG*dG*dC*dT*dC*dG*dC*dA*dG*dA*dT*dG*dG*dT; antisense) [compound 18669] — higher, 34.05%
- 18670 (DNA dT*dG*dG*dG*dC*dA*dG*dG*dG*dC*dT*dC*dG*dC*dA*dG*dA*dT; antisense) [compound 18670] — lower, 0.00%
- 18671 (DNA dG*dA*dC*dT*dG*dG*dG*dC*dA*dG*dG*dG*dC*dT*dC*dG*dC*dA; antisense) [compound 18671] — lower, 2.71%
- 18672 (DNA dC*dA*dT*dT*dG*dG*dA*dG*dA*dA*dG*dA*dA*dG*dC*dC*dG*dA; antisense) [compound 18672] — lower, 0.00%
- 18673 (DNA dG*dA*dT*dG*dA*dC*dA*dC*dA*dT*dT*dG*dG*dA*dG*dA*dA*dG; antisense) [compound 18673] — lower, 0.00%
- 18674 (DNA dG*dC*dA*dG*dA*dT*dG*dA*dC*dA*dC*dA*dT*dT*dG*dG*dA*dG; antisense) [compound 18674] — lower, 0.00%
- 18675 (DNA dT*dC*dG*dA*dA*dA*dG*dC*dA*dG*dA*dT*dG*dA*dC*dA*dC*dA; antisense) [compound 18675] — lower, 0.00%
- 18677 (DNA dC*dA*dC*dA*dG*dC*dT*dT*dG*dT*dC*dC*dA*dA*dG*dG*dG*dT; antisense) [compound 18677] — lower, 0.00%
- 18678 (DNA dT*dT*dG*dG*dT*dC*dT*dC*dA*dC*dA*dG*dC*dT*dT*dG*dT*dC; antisense) [compound 18678] — lower, 0.00%
- 18679 (DNA dC*dA*dG*dG*dT*dC*dT*dT*dT*dG*dG*dT*dC*dT*dC*dA*dC*dA; antisense) [compound 18679] — lower, 6.98%
- 18680 (DNA dC*dT*dG*dT*dT*dG*dC*dA*dC*dA*dA*dC*dC*dA*dG*dG*dT*dC; antisense) [compound 18680] — higher, 18.76%
